Measured values as given in patent US7674609B2, “Culture of Crypthecodinium cohnii and microorganisms derived therefrom” (The University of Hull, priority 2001, dated 2010).

How the values were obtained:
Type in all cases: cell-based
[1] = test system: Crypthecodinium cohnii ATCC 30772; assay: Culture of C. cohnii in acetic acid pH-stat fermenter with propionic acid in the medium (Example 1); conditions: propionic acid 1% v/v
Protocol: The growth medium used for the first culture contained (initially) propionic acid (1% v/v), sodium acetate (8 g/L), yeast extract (7.5 g/L) and sea salts (25 g/L). The growth medium used for the second culture was the same but with the propionic acid omitted. Before use, the pH of each growth medium was adjusted to 6.5 by the addition of NaOH and the medium was then autoclaved at 121° C. for 1 hour.
The first and second cultures used the strain of Crypthecodinium cohnii available from the American Type Culture Collection and identified by the number 30772 (C. cohnii ATCC 30772).
The apparatus included a 5 L fermenter 10 of known type. The fermenter 10 was provided with a pH electrode 11 that was positioned in the fermenter 10 for monitoring the pH of the growth medium in the fermenter 10. The pH electrode 11 was connected via a control device 12 to a pump 13. The control device 12 was programmed to cause the pump 13 to pump acetic acid (50% v/v) from a reservoir 14 into the fermenter 10 when the pH electrode 11 detected a pH greater than a predetermined value (in this case pH 6.5 for both the first and second cultures).
If, during the culture, the pH fell below 6.5, the pH was brought back to 6.5 by adding KOH (2M). This was done automatically.
The fermenter 10 was also provided with a thermometer (not shown) and a heater (not shown) arranged to maintain the growth medium (and the C. cohnii 30772) at a desired temperature within the fermenter 10 (in this case 27° C. for both the first and second cultures).
The fermenter 10 was also provided with an aerator (not shown) that was connected to a source of air (not shown) for aerating the growth medium within the fermenter 10. An oxygen sensor (not shown) was positioned for measuring dissolved oxygen concentration in the growth medium within the fermenter 10. A stirrer (not shown) was provided for stirring the growth medium (and the C. cohnii 30772). The oxygen sensor was connected to the stirrer by a control device (not shown) for varying the speed of the stirrer in response to the oxygen concentration detected by the oxygen sensor so as to maintain the oxygen concentration at a desired level. For both the first and second cultures the aerator was set to aerate the culture at a rate of 1 volume of air per volume of culture per minute. The control device connected to the oxygen sensor and the stirrer was set so that the dissolved oxygen concentration was maintained above 30% of air saturation (the initial stirrer speed being 300 rpm).
To start each culture, 3.5 L of the appropriate growth medium was added to the fermenter 10. An inoculum of C. cohnii 30772 in 880 ml medium containing acetic acid/acetate, yeast extract and sea salt was then added to the fermenter (the preparation of the inoculum is described below). The fermenter 10 was then closed and the culture was heated to the desired operating temperature, aerated and stirred as described above.
In both the first and second cultures, the control device 12 caused the pump 13 to pump acetic acid into the fermenter 10 so as to maintain the pH at 6.5. This process, sometimes referred to as pH-stat operation, is described in detail in WO 01/04338. Briefly, it is believed that the Crypthecodinium cohnii metabolises the acetate in the growth medium (either in the form of acetate or acetic acid) as a carbon source. […]
During the first and second cultures, samples of the cultures were taken at time intervals. Each sample was analysed to determine dry cell weight. […]

[2] = test system: Crypthecodinium cohnii 30772; assay: Culture of C. cohnii with glucose as main carbon source with propionic acid in the medium (Example 2); conditions: propionic acid 1% v/v, glucose 60 g/L
Protocol: The growth medium used for the third culture contained (initially) propionic acid (1% v/v), glucose (60 g/L—autoclaved separately), yeast extract (7.5 g/L) and sea salts (25 g). The growth medium used for the fourth culture was the same but with the propionic acid omitted. In each case, the pH was 6.5. The microorganism used was Crypthecodinium cohnii 30772. For each of the third and fourth cultures, the Crypthecodinium cohnii was grown in a 5 L fermenter. The cultures were initiated by inoculating 3.5 L of the appropriate growth medium with 350 ml of a 3 day old shaking-flask culture of Crypthecodinium cohnii. The inoculum for the third culture was prepared using the same growth medium as that used in the third culture (i.e., with propionic acid) and the inoculum for the fourth culture was prepared using the same growth medium as that used in the fourth culture (i.e., without propionic acid). Cultures were aerated at 1 volume of air per volume of culture per minute and the dissolved oxygen concentration was maintained above 30% of air saturation by increasing the stirrer speed as required, from an initial speed of 300 rpm. The growth temperature was 27° C. and the pH was maintained at 6.5 by addition of KOH (2 M) and H2SO4 (1 M).

[3] = test system: Crypthecodinium cohnii (ATCC 30541); assay: Culture of C. cohnii 30541 in acetic acid pH-stat fermenters with propionic acid (Example 3)
Protocol: The value of including propionic acid in the culture medium was also shown with another strain of Crypthecodinium cohnii (ATCC 30541). This strain was grown on acetic acid in pH-stat fermenters as described in Example 1 with and without the inclusion of propionic acid at 1% of the volume of the initial culture medium. [table]

[4] = first culture, acetic acid pH-stat
[5] = 1% propionic acid versus without
[6] = propionic acid 1%, samples after 140-150 hours growth

Structure (SMILES): CCC(=O)O [propionic acid]
- amount of DHA produced (overall) [1, 4]: 6 to 8 g/L
- cellular lipid content [1, 4]: 55-65 % of the dry cell weight
- content of docosahexaenoic acid [1, 4]: 35-40 % of the total lipid
- forms of the microorganism present (cysts / swimmers), microscopic observation ([1]; first culture, after 24 hours): only non-motile cysts were present
- dry cell weight in the first culture (with propionic acid) relative to the second culture (without propionic acid) ([1]; acetic acid/acetate carbon source, later stages of the cultures, FIG. 2): approximately double
- amount of total lipid produced relative to the fourth culture (without propionic acid) ([2]; FIG. 4): greater than twice
- amount of docosahexaenoic acid produced relative to the fourth culture (without propionic acid) ([2]; FIG. 5): greater than twice
- dry cell weight greater than in the fourth culture (without propionic acid) ([2]; later stages of the culture, FIG. 3): about 20%
- increase in the amount of docosahexaenoic acid produced in the culture [3, 5]: about 85%
- increase in the dry cell weight produced in the culture [3, 5]: over 60%
- Cell dry wt [3, 6]: 75 g/L
- DHA in lipid [3, 6]: 33 % w/w
- Lipid in cells [3, 6]: 20 % w/w
- Total DHA produced [3, 6]: 5 g/L
